“And” between values parts separate entries of the source, which are not always exact repeats. Identical values can stand only once. Inconclusive results and toxic doses are left out.

Experimental findings from PubChem BioAssay AID330 (DTP/NCI, 2004) are described below.

The assay deals with P388 leukemia ip, CD2F1 mice, survival T/C. Briefly: NCI In Vivo Anticancer Drug Screen. Data for tumor model P388 Leukemia (intraperitoneal) in CD2F1 (CDF1) mice. Particulars: endpoint: median survival time, higher = longer survival. The method in brief: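 Mice carrying the transplanted tumor received test compound or vehicle. Survival was recorded in each group, and the value is the treated-group measurement divided by that of the vehicle-treated control group.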

The mark [1] stands for this setting: dose: 15.0 mg/kg/injection, schedule: Q01DX005 (ip), vehicle: saline with Tween-80.
Setting [2] is: dose: 30.0 mg/kg/injection, schedule: Q01DX005 (ip), vehicle: saline with Tween-80.
[3] abbreviates: dose: 60.0 mg/kg/injection, schedule: Q01DX005 (ip), vehicle: saline with Tween-80.
The mark [4] stands for this setting: dose: 50.0 mg/kg/injection, schedule: Q01DX009 (ip), vehicle: Klucel (hydroxypropylcellulose) (HPC).
Where [5] appears, read: dose: 100.0 mg/kg/injection, schedule: Q01DX009 (ip), vehicle: Klucel (hydroxypropylcellulose) (HPC).
Where [6] appears, read: dose: 100.0 mg/kg/injection, schedule: Q04DX003 (ip), vehicle: Klucel (hydroxypropylcellulose) (HPC).
The mark [7] stands for this setting: dose: 200.0 mg/kg/injection, schedule: Q04DX003 (ip), vehicle: Klucel (hydroxypropylcellulose) (HPC).
Where [8] appears, read: dose: 400.0 mg/kg/injection, schedule: Q04DX003 (ip), vehicle: Klucel (hydroxypropylcellulose) (HPC).
[9] abbreviates: dose: 200.0 mg/kg/injection, schedule: Q01DX009 (ip), vehicle: Klucel (hydroxypropylcellulose) (HPC).
[10] abbreviates: dose: 12.5 mg/kg/injection, schedule: Q01DX009 (ip), vehicle: saline with Tween-80.
Setting [11] is: dose: 25.0 mg/kg/injection, schedule: Q01DX009 (ip), vehicle: saline with Tween-80.
The mark [12] stands for this setting: dose: 50.0 mg/kg/injection, schedule: Q01DX009 (ip), vehicle: saline with Tween-80.
Where [13] appears, read: dose: 100.0 mg/kg/injection, schedule: Q04DX003 (ip), vehicle: saline with Tween-80.
Setting [14] is: dose: 100.0 mg/kg/injection, schedule: Q01DX009 (ip), vehicle: saline with Tween-80.
Setting [15] is: dose: 200.0 mg/kg/injection, schedule: Q01DX009 (ip), vehicle: saline with Tween-80.

Take `CCCCCCCCCCC[N+]1(CC)CCCC1`: the T/C (dose: 0.19 mg/kg/injection, schedule: Q01DX009 (ip), vehicle: saline) was 103 % of control; the T/C (dose: 0.39 mg/kg/injection, schedule: Q01DX009 (ip), vehicle: saline) was 98 % of control and 109 % of control; the T/C (dose: 0.78 mg/kg/injection, schedule: Q01DX009 (ip), vehicle: saline) is 98 % of control and 104 % of control and 115 % of control; the T/C (dose: 1.56 mg/kg/injection, schedule: Q01DX009 (ip), vehicle: saline) is 99 % of control; the T/C (dose: 3.12 mg/kg/injection, schedule: Q01DX009 (ip), vehicle: saline) is 111 % of control.

With `CC(=O)Nc1nc(C)c(CCCNS(=O)(=O)c2ccc([N+](=O)[O-])cc2)c(=O)[nH]1`, the T/C runs as follows: under setting [1], 100 % of control; under setting [2], 101 % of control; under setting [3], 93 % of control and 95 % of control.

Consider `Cc1c(Cl)cccc1NC(=O)Nc1nccs1`, for which the T/C is 90 % of control (dose: 25.0 mg/kg/injection, schedule: Q01DX009 (ip), vehicle: Klucel (hydroxypropylcellulose) (HPC)); 93 % of control under setting [4]; 100 % of control under setting [5].

Take `c1ccc(C23CC2COP3(c2ccccc2)(c2ccccc2)c2ccccc2)cc1` (stereo unspecified): the T/C by setting is: (dose: 6.25 mg/kg/injection, schedule: Q01DX009 (ip), vehicle: suspension in saline) 90 % of control; (dose: 12.5 mg/kg/injection, schedule: Q01DX009 (ip), vehicle: suspension in saline) 98 % of control; (dose: 25.0 mg/kg/injection, schedule: Q01DX009 (ip), vehicle: suspension in saline) 93 % of control.

For `c1ccc(P23(Oc4ccccc4S2)Oc2ccccc2S3)cc1`, the T/C by setting is: under setting [6], 93 % of control; under setting [7], 90 % of control; under setting [8], 91 % of control.

With `O=C(Nc1ccc(Cl)c(Cl)c1)N1CC=CC1`, the T/C is, setting by setting: under setting [6], 101 % of control; under setting [7], 96 % of control; under setting [8], 94 % of control.

Consider `CCCCCCCC/C=C\CCCCCCCCCCCC(=O)O`, for which the T/C was 100 % of control under setting [4]; 100 % of control (dose: 50.0 mg/kg/injection, schedule: Q01DX009 (ip), vehicle: other); 92 % of control under setting [5]; 106 % of control (dose: 100.0 mg/kg/injection, schedule: Q01DX009 (ip), vehicle: other); 91 % of control under setting [9]; 102 % of control (dose: 200.0 mg/kg/injection, schedule: Q01DX009 (ip), vehicle: other). Also, the T/C by setting is: (dose: 400.0 mg/kg/injection, schedule: Q01DX009 (ip), vehicle: Klucel (hydroxypropylcellulose) (HPC)) 98 % of control; (dose: 400.0 mg/kg/injection, schedule: Q01DX009 (ip), vehicle: other) 94 % of control.

As for `O=S(=O)(C(Br)S(=O)(=O)C(F)(F)C(F)(F)C(F)(F)C(F)(F)F)C(F)(F)C(F)(F)C(F)(F)C(F)(F)F`, the T/C is 95 % of control (dose: 25.0 mg/kg/injection, schedule: Q01DX001 (ip), vehicle: saline); 95 % of control (dose: 50.0 mg/kg/injection, schedule: Q01DX001 (ip), vehicle: saline); 100 % of control and 101 % of control (dose: 100.0 mg/kg/injection, schedule: Q01DX001 (ip), vehicle: saline).

On to `O=c1ccc(OS(=O)(=O)c2ccccc2)n[nH]1`, for which the T/C was 92 % of control (dose: 60.0 mg/kg/injection, schedule: Q01DX005 (ip), vehicle: Klucel (hydroxypropylcellulose) (HPC)) and 90 % of control (dose: 120.0 mg/kg/injection, schedule: Q01DX005 (ip), vehicle: Klucel (hydroxypropylcellulose) (HPC)).

For the compound `Cc1cc(=O)n2c3c(c4c(cc13)c(CN(C)C)cc(=O)n4C)OC2`, the T/C was 111 % of control under setting [10]; 152 % of control under setting [11]; 102 % of control and 118 % of control under setting [12].

With `CSc1nc(NC2OC(CO)C(O)C(O)C2O)c(Cl)c(=O)n1C` (stereo unspecified), the T/C was 94 % of control under setting [1]; 95 % of control under setting [2]; 91 % of control and 97 % of control under setting [3]; 100 % of control (dose: 120.0 mg/kg/injection, schedule: Q01DX005 (ip), vehicle: saline with Tween-80).

For `O=C1C(=C2C=CN(CCCN3CCCC3)C=C2)C(=O)c2ccccc21`, the T/C under setting [4] is 90 % of control, the T/C under setting [5] was 96 % of control and the T/C under setting [9] was 95 % of control.

As to `C=C1C(=O)OC2/C=C(/CO)C3(O)CC(O)C(C)(CC(OC(=O)/C(C)=C/C)C12)O3` (stereo unspecified), the T/C (dose: 10.0 mg/kg/injection, schedule: Q01DX009 (ip), vehicle: saline with Tween-80) is 114 % of control and 117 % of control; the T/C (dose: 20.0 mg/kg/injection, schedule: Q01DX009 (ip), vehicle: saline with Tween-80) is 124 % of control.

On to `Cc1c(Cl)cccc1NC(=O)/C=C/C(=O)O`, for which the T/C was 90 % of control under setting [13]; 95 % of control (dose: 200.0 mg/kg/injection, schedule: Q04DX003 (ip), vehicle: saline with Tween-80); 90 % of control (dose: 400.0 mg/kg/injection, schedule: Q04DX003 (ip), vehicle: saline with Tween-80).

As for `CON/C=C(C#N)/C=C/C=Nc1ccc(S(=O)(=O)Nc2onc(C)c2C)cc1`, the T/C by setting is: under setting [12], 100 % of control; under setting [14], 92 % of control; under setting [15], 98 % of control.

Turning to `COc1ccc(C(c2cc(C(C)(C)C)c(O)c(C(C)(C)C)c2)n2ccnc2)cc1` (stereo unspecified), the T/C reads like this: (dose: 50.0 mg/kg/injection, schedule: Q01DX005 (ip), vehicle: distilled water + alcohol) 105 % of control; (dose: 100.0 mg/kg/injection, schedule: Q01DX005 (ip), vehicle: distilled water + alcohol) 103 % of control; (dose: 200.0 mg/kg/injection, schedule: Q01DX005 (ip), vehicle: distilled water + alcohol) 99 % of control.

As for `N#Cc1ccc(NN=NCCCCCl)cc1`, the T/C was 94 % of control (dose: 3.12 mg/kg/injection, schedule: Q01DX005 (ip), vehicle: distilled water + Tween-80); 88 % of control (dose: 6.25 mg/kg/injection, schedule: Q01DX005 (ip), vehicle: distilled water + Tween-80); 91 % of control (dose: 12.5 mg/kg/injection, schedule: Q01DX005 (ip), vehicle: distilled water + Tween-80); 94 % of control (dose: 25.0 mg/kg/injection, schedule: Q01DX005 (ip), vehicle: distilled water + Tween-80); 105 % of control (dose: 50.0 mg/kg/injection, schedule: Q01DX005 (ip), vehicle: distilled water + Tween-80).

As for `CCCCCCN(CCCCCC)P(=O)(N1CC1)N1CC1`, the T/C was 118 % of control (dose: 12.5 mg/kg/injection, schedule: Q01DX009 (ip), vehicle: saline); 113 % of control (dose: 25.0 mg/kg/injection, schedule: Q04DX003 (ip), vehicle: saline with Tween-80); 100 % of control under setting [13].

On to `N#CCCn1nc(SC2CCCCC2)c(=O)[nH]c1=O`, for which the T/C by setting is: (dose: 25.0 mg/kg/injection, schedule: Q01DX005 (ip), vehicle: water) 108 % of control; (dose: 50.0 mg/kg/injection, schedule: Q01DX005 (ip), vehicle: water) 103 % of control; (dose: 100.0 mg/kg/injection, schedule: Q01DX005 (ip), vehicle: water) 98 % of control; (dose: 200.0 mg/kg/injection, schedule: Q01DX005 (ip), vehicle: water) 108 % of control.

Turning to `CNC(=O)OCCN(CCOC(=O)NC)C(=O)N1c2ccccc2Sc2ccccc21`, the T/C was 94 % of control under setting [10]; 98 % of control under setting [11]; 91 % of control under setting [12]; 100 % of control under setting [14]; 100 % of control under setting [15].

Turning to `CCOC(=O)c1c(C#N)c2ccccc2n1O`, the T/C (dose: 25.0 mg/kg/injection, schedule: Q01DX001 (ip), vehicle: distilled water + Tween-80) is 110 % of control; the T/C (dose: 50.0 mg/kg/injection, schedule: Q01DX001 (ip), vehicle: distilled water + Tween-80) was 106 % of control; the T/C (dose: 100.0 mg/kg/injection, schedule: Q01DX001 (ip), vehicle: distilled water + Tween-80) was 110 % of control; the T/C (dose: 100.0 mg/kg/injection, schedule: Q01DX001 (ip), vehicle: saline with Tween-80) was 97 % of control; the T/C (dose: 400.0 mg/kg/injection, schedule: Q01DX001 (ip), vehicle: saline with Tween-80) is 99 % of control.
